Experimental data reported in patent US20020046680A1, “Methine compound, a recording liquid for ink jet, and an ink jet recording method” (priority 2000, published 2002).

Experiments:
Type in all cases: physicochemical
[1] = Ozone gas resistance of recorded image (percentage of colorant remaining); settings: ozone gas 0.5±0.1 ppm, 7 days, room temperature, dark, percentage of colorant remaining at reflection densities 1, 1.5 and 2.0
Method: Regarding ozone gas resistance, the photo glossy papers on which the above-described images were formed were stood alone for 7 days in a box having an ozone gas concentration of 0.5±0.1 ppm in which were set at room temperature and in a dark room, and image densities before and after storage under ozone gas atmosphere were measured by using a reflection densitometer (X-Rite310TR), and evaluated in terms of the percentage of colorant remaining. The fore-mentioned reflection density was measured at three points which were 1, 1.5 and 2.0. The ozone gas concentration in the box was measured using an ozone gas monitor manufactured by APPLICS (Model OZG-EM-01). The case in which the percentage of colorant remaining were 70% or more at any of the densities was evaluated as A, the case in which the percentage of colorant remaining was less than 70% at one or two points was evaluated as B, and the case in which the percentage of colorant remaining was less than 70% at all densities was evaluated as C. It was evaluated at three stages.

[2] = Light fastness of recorded image (xenon light, percentage of colorant remaining); settings: xenon light (85000 lux) for 7 days, percentage of colorant remaining at reflection densities 1, 1.5 and 2.0
Method: (§1) Images were respectively recorded on a photo glossy paper (Photo glossy paper EX, ink jet paper manufactured by Fuji Photo Film Co., Ltd.) by an ink jet printer (“PM-770C”, manufactured by Seiko Epson Co., Ltd.) using the obtained ink liquids 1 to 9. Hue, light fastness, humidity and heat fastness and ozone gas resistance of the obtained images were evaluated.
Regarding light fastness, an image-receiving material on which images were recorded was irradiated with xenon light (85000 lux) for 7 days using a weather meter (Atlas C. 165), the image densities before and after xenon irradiation were measured by using a reflection densitometer (X-Rite310TR), and the light fastness was evaluated in terms of the percentage of colorant remaining.
(§2) Reflection density was measured at three points which were 1, 1.5 and 2.0, and the case in which the percentage of colorant remaining were 90% or more at any of the three densities was evaluated as A, the case in which the percentage of colorant remaining was less than 90% at one or two points was evaluated as B, and the case in which the percentage of colorant remaining was less than 90% at all densities was evaluated as C.

[3] = Humidity and heat fastness of recorded image (percentage of colorant remaining); settings: 80° C., humidity of 70%, 7 days, percentage of colorant remaining at reflection densities 1, 1.5 and 2.0
Method: as §1
Further, regarding humidity and heat fastness, image densities before and after storage at a temperature of 80° C. and a humidity of 70% for 7 days were measured in the same manner, and evaluated in terms of the percentage of colorant remaining.
as §2

Cc1ccc2[nH]c3cc4c(=O)c5cc(C)ccc5[nH]c4cc3c(=O)c2c1 [C. I. Pigment Red 122]
ozone resistance [1]: A (the percentage of colorant remaining were 70% or more at any of the densities)
Light fastness [2]: A (the percentage of colorant remaining were 90% or more at any of the three densities)
Humidity and heat fastness [3]: A (the percentage of colorant remaining were 90% or more at any of the three densities)
